# Reference: patent US20030232862A1 (priority 2002, published 2003)
# Legend:
# [1] = target: cGMP PDE purified from human colon HT-29 cultured tumor cells (Homo sapiens, UniProt O76074); assay: cGMP PDE inhibition assay; format: biochemical
# HT-29 cells = assay: Apoptosis and necrosis by morphology (acridine orange/ethidium bromide) in HT-29 cells; format: cell-based, human; details: HT-29, six days
# Source text: Apoptosis occurs naturally during normal tissue turnover and during embryonic development of organs and limbs. Apoptosis also is induced by cytotoxic T-lymphocytes and natural killer cells, by ionizing radiation and by certain chemotherapeutic drugs. Inappropriate regulation of apoptosis is thought to play an important role in many pathological conditions including cancer, AIDS, or Alzheimer's disease, etc. Compounds can be screened for induction of apoptosis using cultures of tumor cells maintained under conditions as described above. Treatment of cells with test compounds involves either pre- or post-confluent cultures and treatment for two to seven days at various concentrations. Apoptotic cells are measured in both the attached and “floating” compartments of the cultures. […]
# Reference compounds and test compounds were analyzed for their novel PDE inhibitory activity in accordance with the protocols for the assay, supra. […] Apoptotic and necrotic cell death was determined previously (Duke and Cohen, In: Current Protocols in Immunology, 3.17.1 - 3.17.16, New York, John Wiley and Sons, 1992). […]
# The apoptosis inducing activity for a series of phosphodiesterase inhibitors was determined. […] Apoptosis and necrosis were determined morphologically after acridine orange and ethidium bromide labeling in accordance with the assay described, supra. […]
# [2] = tested on: β-catenin and PKG levels in SW480 cells; assay: Western blot of β-catenin and PKG in SW480 cells; format: cell-based, human
# Method: SW480 cells treated with exisulind as described previously are harvested from the microfuge tubes by rinsing once with ice-cold PBS. The cells are lysed by modified RIPA buffer for 15 minutes with agitation. The cell lysate is spun down in a cold room. The supernatants are transferred to fresh microcentrifuge tubes immediately after spinning. BioRad DC Protein Assay (Temecula, Calif.) is performed to determine the protein concentrations in samples. The samples are normalized for protein concentration, as described above.
# 50 μg of each sample is loaded onto a 10% SDS gel. SDS-PAGE is performed, and the proteins then are transferred to a nitrocellulose membrane. The blotted nitrocellulose membrane is blocked in freshly prepared TBST containing 5% nonfat dry milk for one hour at room temperature with constant agitation.
# A goat-anti-PKG primary antibody is diluted to the recommended concentration/dilution in fresh TBST/5% nonfat dry milk. The nitrocellulose membrane is placed in the primary antibody solution and incubated one hour at room temperature with agitation. The nitrocellulose membrane is washed three times for ten minutes each with TBST. The nitrocellulose membrane is incubated in a solution containing a secondary peroxidase (POD) conjugated rabbit anti-goat antibody for 1 hour at room temperature with agitation. The nitrocellulose membrane is washed three times for ten minutes each time with TBST. The detection is performed by using Boehringer Mannheim BM blue POD substrate.
# SW480 cells were treated with exisulind or vehicle (0.1% DMSO) for 48 hours. 50 μg supernatant of each cell lysate was loaded onto a 10% SDS-gel and blotted to a nitrocellulose membrane, and the membrane was probed with rabbit-anti-β-catenin and rabbit anti-PKG antibodies.
# This observation was made by culturing SW480 cells with either 200, 400 or 600 μM exisulind or vehicle (0.1% DMSO). The cells are harvested 48 hours post treatment and processed for immunoblotting. Immuno-reactive protein can be detected by Western blot. […]
compound,measurement,setting,value
"CC1=C(CC(=O)O)c2cc(F)ccc2/C1=C\c1ccc(S(C)(=O)=O)cc1 [Exisulind, 5-fluoro-2-methyl-1-(p-methylsulfonylbenzylidene)-3-indenylacetic acid]",PDE Inhibition,[1]; Table 9 qualitative profile,+ +
same,inhibition at 10 µM,"[1]; read-out: % Inhibition at 10 μM (cGMP PDE), 10 μM",39%
same,IC50,[1]; read-out: IC50 for inhibition of cGMP PDE,56 µM
same,apoptotic and necrotic cell death,HT-29 cells,capable of causing apoptotic cell death without inducing necrosis
same,reduction of β-catenin expression compared to control,"[2]; SW480, 200, 400 or 600 μM, 48 hours",50%
same,PKG level,"[2]; SW480, 48 hours, FIG. 19",increase of PKG
same,β-catenin level,"[2]; SW480, 48 hours, FIG. 19",drop of β-catenin
